A short description of series [1]: Measurement of Log P values by HPLC on reversed phase columns (EEC directive 79/831 Annex V.A8). Type of series: physicochemical. The settings on record: reversed phase HPLC column, method [a]: LC-UV, acidic range, 0.1% formic acid in water and acetonitrile as eluent. The essentials: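 Log P derived from retention on reversed-phase columns (EEC directive 79/831 Annex V.A8), LC-UV, acetonitrile gradient 10% to 95% against water containing 0.1% formic acid, 0.001 M ammonium acetate, or 0.1% phosphoric acid; several values per method separated by "+".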

Series [2] deals with Alternaria brassicae. Put plainly: In vivo preventive test on Alternaria brassicae (leaf spot on radish or cabbage). The settings on record: 500 ppm of active ingredient, preventive spray on radish or cabbage, evaluated 3 to 4 days after inoculation, read-out: efficacy. An outline of the steps:
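Protective spray on young radish or cabbage: actives in water diluted from DMSO/acetone/Tween 80, with solvent-only controls. Leaves were challenged after 24 h with a spore suspension, and plants were held at 100% RH, 20 °C for 3 to 4 days.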

The test system of series [3] is Sphaerotheca fuliginea. As to the kind of experiment: In vivo preventive test on Sphaerotheca fuliginea (powdery mildew on cucurbits). The conditions noted are these: Podosphaera fuliginea, 192 h; 500 ppm of active ingredient; preventive spray on gherkin; evaluated 8 days after inoculation; read-out: efficacy. An outline of the steps:
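This is a preventive spray test on gherkin seedlings, with compound formulated in DMSO/acetone/Tween 80 in water and solvent-only controls. Spore inoculation followed one day after treatment. Incubation lasted 8 days at 20 °C, 70–80% RH.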

In series [4] the test system is Alternaria alternata. Put plainly: Alternaria alternata in vitro cell test. In kind it is cell-based. The settings on record: 120 h, 20 ppm of active ingredient, liquid culture, 5 days incubation, spectrometric measurement of mycelium growth, read-out: efficacy (inhibition of fungal growth). The essentials:
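Spectrometric readout of mycelial growth after 5-day incubation gauged compound effects on spore germination and growth of A. alternata in liquid medium. Compounds were delivered in DMSO at ≤1% final. Absorbance was compared with untreated controls to give inhibition.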

Series [5] has as its system Colletotrichum lindemuthianum. Put plainly: B-8. Colletotrichum lindemuthianum in vitro cell test. The conditions noted are these: 144 h, 20 ppm of active ingredient, 6 days incubation, liquid culture, absorbance, read-out: efficacy (inhibition of fungal growth). Type of series: cell-based. The essentials:
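Liquid-culture germination/growth test: compounds in ≤1% final DMSO were added to spore-containing medium. Fungal growth was quantified spectrophotometrically after 6 days of incubation and expressed as inhibition versus untreated controls.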

Series [6] relates to Septoria tritici. As to the kind of experiment: B-9. Septoria tritici in vitro cell test. Type of series: cell-based. The conditions noted are these: Zymoseptoria tritici, 168 h; 20 ppm of active ingredient; 7 days incubation; liquid culture, absorbance; read-out: efficacy (inhibition of fungal growth). An outline of the steps: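 Compounds from DMSO stocks (final DMSO ≤1%) were added to liquid medium containing S. tritici spores to test inhibition of germination and mycelial growth. After 7 days, mycelium growth was read spectrometrically and inhibition derived from absorbance versus fungicide-free control wells.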

Series [7] relates to Pyrenophora teres. As to the kind of experiment: B-10. Pyrenophora teres in vitro cell test. In kind it is cell-based. The settings on record: 144 h, 20 ppm of active ingredient, 6 days incubation, liquid culture, absorbance, read-out: efficacy (inhibition of fungal growth). The essentials:
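Liquid-culture assay on a P. teres spore suspension with compounds added to the medium from DMSO solutions, final DMSO ≤1%. Mycelium growth read spectrometrically after 6 days. Inhibition calculated from absorbance against untreated control wells.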

Series [8] has as its system Botrytis cinerea. Put plainly: B-11. Botrytis cinerea in vitro cell test. Type of series: cell-based. The conditions noted are these: 144 h, 20 ppm of active ingredient, 6 days incubation, liquid culture, absorbance, read-out: efficacy (inhibition of fungal growth). An outline of the steps:
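B. cinerea spores were grown in liquid culture with compound (DMSO ≤1% final). Mycelium growth was measured spectrometrically after 6 days, with inhibition taken as absorbance relative to untreated control wells.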

What is called chromatographic logP is lipophilicity estimated from chromatographic retention. The low end stands for lower lipophilicity, the high end for higher lipophilicity. As a reminder, the inhibition is the percentage by which the read-out fell short of the control.

Compound `Cc1cccc(Oc2cnc3ccccc3c2C(=O)NCC(F)(F)c2ccc(C)cc2C)c1` [I-222] gave a chromatographic logP in series [1] of 4.3. The pest or weed control at 500 ppm in series [2] and in series [3] was 90 to 100% throughout. In addition, the inhibition at 20 ppm in series [4] was 90 to 100%; in series [5] it was 90 to 100%; in series [6] it was 80 to 89%; in series [7] it was 90 to 100%; in series [8], 90 to 100%.

In series [1], `Cc1ccc(C(F)(F)CNC(=O)c2c(Oc3cccc(Br)c3F)nnc3ccccc23)c(C)c1` [I-227] displayed a chromatographic logP of 4.4. The pest or weed control at 500 ppm in series [2] and in series [3] was 90 to 100% in each case. Further, the inhibition at 20 ppm is 90 to 100% in series [4]; 90 to 100% in series [5]; 70 to 79% in series [6]; 90 to 100% in series [7]; 90 to 100% in series [8].

For `O=C(NCC(F)(F)c1ccc(Cl)cc1Cl)c1c(Oc2cccc(C(F)(F)F)c2)nnc2c1COCC2` [I-228], the chromatographic logP in series [1] stood at 3.85. The pest or weed control at 500 ppm in series [2] and in series [3] was 90 to 100% in each case. Moreover, the inhibition at 20 ppm in series [4], in series [5], in series [6], in series [7] and in series [8] was 90 to 100% in each case.

In turn, `O=C(NCC(F)(F)c1ccc(Br)cc1Cl)c1c(Oc2cccc(C(F)(F)F)c2)nnc2c1COCC2` [I-229] displayed a chromatographic logP in series [1] of 3.94. The pest or weed control at 500 ppm in series [2] and in series [3] was 90 to 100% each time. For the same compound, the inhibition at 20 ppm in series [4], in series [5], in series [6], in series [7] and in series [8] was 90 to 100% throughout.

The compound `Cc1ccc(C(F)(F)CNC(=O)c2c(Oc3cccc(C(F)(F)F)c3)nnc3c2CCCC3)c(Cl)c1` [I-239] had a chromatographic logP in series [1] of 4.05. For the same compound, the pest or weed control at 500 ppm in series [2] and in series [3] was 90 to 100% in each case. The inhibition at 20 ppm in series [4], in series [5], in series [6], in series [7] and in series [8] was 90 to 100% throughout.

For the compound `Cc1ccc(C(F)(F)CNC(=O)c2c(Oc3cccc(C(F)F)c3)nnc3c2CCCC3)c(Cl)c1` [I-243], in series [1], the chromatographic logP came out at 3.63. Also, the pest or weed control at 500 ppm in series [2] and in series [3] was 90 to 100% each time. The inhibition at 20 ppm in series [4], in series [5], in series [6], in series [7] and in series [8] was 90 to 100% throughout.

In the case of `Cc1ccc(C(F)(F)CNC(=O)c2c(Oc3cccc(C(F)(F)F)c3)nnc3cc(C)ccc23)c(Cl)c1` [I-245], in series [1], the chromatographic logP turned out to be 4.7. The pest or weed control at 500 ppm in series [2] and in series [3] was 90 to 100% throughout. Also, the inhibition at 20 ppm fell in the range of 90 to 100% in series [4]; 90 to 100% in series [5]; 80 to 89% in series [6]; 90 to 100% in series [7]; 90 to 100% in series [8].

In series [1], `Cc1ccc2c(C(=O)NCC(F)(F)c3ccc(C)c(C)c3)c(Oc3cccc(C(F)(F)F)c3)nnc2c1` [I-246] showed a chromatographic logP of 4.66. Further, the pest or weed control at 500 ppm in series [2] and in series [3] was 90 to 100% in each case. The inhibition at 20 ppm in series [4], in series [5], in series [6], in series [7] and in series [8] was 90 to 100% each time.
